Laboratory results taken from publication PMC9828337 (Angewandte Chemie (International Ed. in English), 2022).

Tested on: CurKC-CurALP and CurKCkinase-CurKClyase
Assay: MST binding with or without an ATP analog
Set-up: species or system Thermomonospora curvata DSM43183
Conditions: three replicates

SMILES: Nc1ncnc2c1ncn2[C@@H]1O[C@H](COP(=O)(O)OP(=O)(O)OP(=O)(O)O)[C@@H](O)[C@H]1O [ATP]
- effect on leader binding and lyase–kinase association: little impact on the leader binding and lyase–kinase association
